What all share (type): cell-based
Test [1] is described as follows: Effect on proliferation of cells, Cell Titer-Glo, 72 hours. The note with it: Mus musculus, BaF3 cells. As to the method:
The compounds of the present invention were tested for their effect on growth of cancer cells (Table 2), to further evaluate the compounds herein for their inhibitory effect on proliferation of cancer cells and their selectivity in inhibiting proliferation of cancer cells. […]
In the example, solutions of the test compound in DMSO at different concentrations (0.000508 μM, 0.00152 μM, 0.00457 μM, 0.0137 μM, 0.0411 μM, 0.123 μM, 0.370 μM, 1.11 μM, 3.33 μM, 10 μM) was added to the above cells respectively. The cells were incubated for 72 hours. The number of viable cells was detected with a Cell Titer-Glo (Promega, USA) Cell Viability Assay Kit by quantifying the ATP in viable cells. The values of GI50 (unit) of the compounds of the present invention against each of the test cells were determined.
(ATP-based viability assays read luminescence as a measure of living cells.)

Test [2] has as its system mouse BaF3-FL-BRAF-V600E (stably expressing full-length BRAF-V600E mutant kinase). Kind of test: Effect on proliferation of cancer cells, Cell Titer-Glo, 72 hours. The method, then: (§1) The compounds of the present invention were tested for their effect on growth of cancer cells (Table 2), to further evaluate the compounds herein for their inhibitory effect on proliferation of cancer cells and their selectivity in inhibiting proliferation of cancer cells.
(§2) The cells were incubated for 72 hours. The number of viable cells was detected with a Cell Titer-Glo (Promega, USA) Cell Viability Assay Kit by quantifying the ATP in viable cells. The values of GI50 (unit) of the compounds of the present invention against each of the test cells were determined.

In test [3] the test system is colorectal cancer cell COLO205 (expressing BRAF-V600E mutant kinase). The description is as above. The settings on record: Homo sapiens, COLO 205. The method, then:
as §1, §2

Test [4] has as its system melanoma cell A375 (expressing BRAF-V600E mutant kinase). Described as above. The settings on record: Homo sapiens, A-375. As to the method: as §1, §2

Some results are limits rather than exact numbers.

Regarding `Cc1ccc(NC(=O)c2cccc(C(C)(C)C#N)c2)cc1-n1cc(-c2cncc(OCC3CCOC3)c2)cn1` (stereo not shown) [Example 65, 3-(2-cyanoprop-2-yl)-N-(4-methyl-3-(4-(5-((tetrahydrofuran-3-yl)methoxy)pyrid-3-yl)-1H-pyrazol-1-yl)phenyl)benzamide], the GI50 (commonly the concentration at which growth is held to half of that of the control) in test [1] turned out to be 1700 nM; in test [2] it was 1.3 nM; in test [3], 35 nM; in test [4] it was 16 nM.

As for `Cc1ccc(NC(=O)c2cccc(C(C)C#N)c2)cc1-n1cc(-c2cncc(-c3ccncc3)c2)cn1` (stereo not shown) [Example 6, N-(3-(4-([3,4′-bipyridyl]-5-yl)-1H-pyrazol-1-yl)-4-methylphenyl)-3-(1-cyanoethyl)benzamide], the GI50 is 780 nM in test [1], 7.5 nM in test [2], 53 nM in test [3] and 57 nM in test [4].

Regarding `Cc1ccc(NC(=O)c2cccc(C(C)(C)C#N)c2)cc1-n1cnc(-c2cnc3[nH]ccc3c2)c1` [Example 176, N-(3-(4-(1H-pyrrolo[2,3-b]pyrid-5-yl)-1H-imidazol-1-yl)-4-methylphenyl)-3-(2-cyanoprop-2-yl)benzamide], the figures for the GI50 in test [1], in test [3] and in test [4] were 920 nM, 130 nM and 89 nM, respectively.

As to `Cc1ccc(NC(=O)c2cccc(C(C)(C)C#N)c2)cc1-n1cnc(-c2cncc(N3CCOCC3)c2)c1` [Example 109, 3-(2-cyanoprop-2-yl)-N-(4-methyl-3-(4-(5-morpholinopyrid-3-yl)-1H-imidazol-1-yl)phenyl)benzamide], the GI50 in test [1] turned out to be 3800 nM; in test [3] it was 110 nM; in test [4] it was 60 nM.

For `Cc1ccc(NC(=O)c2cccc(C(C)(C)C#N)c2)cc1-n1cc(-c2cnccc2OC2CCOCC2)cn1` [Example 56, 3-(2-cyanoprop-2-yl)-N-(4-methyl-3-(4-(4-((tetrahydro-2H-pyran-4-yl)oxy)pyrid-3-yl)-1H-pyrazol-1-yl)phenyl)benzamide], the GI50 in test [1] is 4100 nM; in test [2] it was below 0.3 nM; in test [3], 119 nM; in test [4], 77 nM.

With `Cc1ccc(NC(=O)c2cccc(C(C)(C)C#N)c2)cc1-n1cc(-c2cncc(OC3COC3)c2)cn1` [Example 84, 3-(2-cyanoprop-2-yl)-N-(4-methyl-3-(4-(5-(oxetan-3-yloxy)pyrid-3-yl)-1H-pyrazol-1-yl)phenyl)benzamide], the GI50 in test [1] is 8600 nM; in test [2] it was below 0.3 nM; in test [3], 130 nM; in test [4], 99 nM.

Take `Cc1ccc(NC(=O)c2cccc(-c3ccsc3)c2)cc1-n1cc(-c2cnc3[nH]ccc3c2)cn1` [Example 183, N-(3-(4-(1H-pyrrolo[2,3-b]pyrid-5-yl)-1H-pyrazol-1-yl)-4-methylphenyl)-3-(thien-3-yl)benzamide]: the GI50 in test [1] came out at 3400 nM; in test [3], 150 nM; in test [4] it was 300 nM.

Consider `Cc1ccc(NC(=O)c2cccc(C(C)(C)C#N)c2)cc1-n1cc(-c2cnccc2OCC2COC2)cn1` [Example 87, 3-(2-cyanoprop-2-yl)-N-(4-methyl-3-(4-(4-(oxetan-3-ylmethoxy)pyrid-3-yl)-1H-pyrazol-1-yl)phenyl)benzamide], for which the GI50 was 2500 nM in test [1], below 0.3 nM in test [2], 65 nM in test [3] and 36 nM in test [4].

With `Cc1ccc(NC(=O)c2cc(C(C)(C)C)on2)cc1-n1cnc(-c2cnc3[nH]ccc3c2)c1` [Example 178, N-(3-(4-(1H-pyrrolo[2,3-b]pyrid-5-yl)-1H-imidazol-1-yl)-4-methylphenyl)-5-(tert-butyl)isoxazole-3-carboxamide], the GI50 was 3700 nM in test [1], 300 nM in test [3] and 140 nM in test [4].

As for `Cc1ccc(NC(=O)c2cccc(C(C)C#N)c2)cc1-n1cc(-c2cnc3[nH]ccc3c2)cn1` (stereo not shown) [Example 179, N-(3-(4-(1H-pyrrolo[2,3-b]pyrid-5-yl)-1H-pyrazol-1-yl)-4-methylphenyl)-3-(1-cyanoethyl)benzamide], the GI50 in test [1] turned out to be 3600 nM; in test [3], 140 nM; in test [4] it was 250 nM.

As for `Cc1ccc(NC(=O)c2cccc(C(F)(F)F)c2)cc1-n1cc(-c2cncc(-c3ccc(N4CCN(C)CC4)cc3)c2)cn1` [Example 31, N-(4-methyl-3-(4-(5-(4-(4-methylpiperazin-1-yl)phenyl)pyrid-3-yl)-1H-pyrazol-1-yl)phenyl)-3-(trifluoromethyl)benzamide], the results for the GI50 in test [3] and in test [4] were 98 nM and 100 nM, respectively.

Consider `Cc1ccc(NC(=O)c2cccc(C(F)(F)F)c2)cc1-n1cc(-c2cncc(-c3ccncc3)c2)cn1` [Example 13, N-(3-(4-([3,4′-bipyridyl]-5-yl)-1H-pyrazol-1-yl)-4-methylphenyl)-3-(trifluoromethyl)benzamide], for which the GI50 in test [1] worked out at 1300 nM; in test [3] it was 62 nM; in test [4], 81 nM.

For the compound `Cc1ccc(NC(=O)c2cccc(C(C)(C)C#N)c2)cc1-n1cc(-c2cncc(-c3ccc(N4CCN(C)CC4)cc3)c2)cn1` [Example 30, N-(4-methyl-3-(4-(5-(4-(4-methylpiperazin-1-yl)phenyl)pyrid-3-yl)-1H-pyrazol-1-yl)phenyl)-3-(2-cyanoprop-2-yl)benzamide], the GI50 was 10 nM in test [2], 52 nM in test [3] and 47 nM in test [4].

On to `Cc1ccc(NC(=O)c2cccc(C(F)(F)F)c2)cc1-n1cc(-c2cnc3[nH]ccc3c2)cn1` [Example 170, N-(3-(4-(1H-pyrrolo[2,3-b]pyrid-5-yl)-1H-pyrazol-1-yl)-4-methylphenyl)-3-(trifluoromethyl)benzamide], for which the GI50 in test [1] was 4800 nM; in test [3], 280 nM; in test [4], 270 nM.

As to `Cc1ccc(NC(=O)c2ccc(C)c(C(F)(F)F)c2)cc1-n1cnc(-c2cnc3[nH]ccc3c2)c1` [Example 175, N-(3-(4-(1H-pyrrolo[2,3-b]pyrid-5-yl)-1H-imidazol-1-yl)-4-methylphenyl)-4-methyl-3-(trifluoromethyl)benzamide], the GI50 in test [1] was found to be 1600 nM; in test [3], 150 nM; in test [4] it was 100 nM.

Regarding `Cc1ccc(NC(=O)c2ccc(CN3CCN(C)CC3)c(C(F)(F)F)c2)cc1-n1cnc(-c2cnc3[nH]ccc3c2)c1` [Example 174, N-(3-(4-(1H-pyrrolo[2,3-b]pyrid-5-yl)-1H-imidazol-1-yl)-4-methylphenyl)-4-((4-methylpiperazin-1-yl)methyl)-3-(trifluoromethyl)benzamide], the GI50 in test [1] stood at 960 nM; in test [3], 110 nM; in test [4], 160 nM.

In the case of `Cc1ccc(NC(=O)c2cccc(C(F)(F)F)c2)cc1-n1cc(-c2cncc(-c3cccnc3)c2)cn1` [Example 2, N-(3-(4-([3,3′-bipyridyl]-5-yl)-1H-pyrazol-1-yl)-4-methylphenyl)-3-(trifluoromethyl)benzamide], the GI50 in test [1] was 1700 nM; in test [3] it was 48 nM; in test [4], 36 nM.

Consider `Cc1ccc(NC(=O)c2cccc(C(C)(C)C#N)c2)cc1-n1cc(-c2cnc3[nH]ccc3c2)cn1` [Example 171, N-(3-(4-(1H-pyrrolo[2,3-b]pyrid-5-yl)-1H-pyrazol-1-yl)-4-methylphenyl)-3-(2-cyanoprop-2-yl)benzamide], for which the GI50 worked out at 2600 nM in test [1], 360 nM in test [3] and 110 nM in test [4].

As for `Cc1ccc(NC(=O)c2ccc(CN3CCN(C)CC3)c(C(F)(F)F)c2)cc1-n1cc(-c2cnc3[nH]ccc3c2)cn1` [Example 168, N-(3-(4-(1H-pyrrolo[2,3-b]pyrid-5-yl)-1H-pyrazol-1-yl)-4-methylphenyl)-4-((4-methylpiperazin-1-yl)methyl)-3-(trifluoromethyl)benzamide], the GI50 was 3300 nM in test [1], 28 nM in test [3] and 46 nM in test [4].

Turning to `Cc1ccc(NC(=O)c2ccc3cccnc3c2)cc1-n1cc(-c2cnc3[nH]ccc3c2)cn1` [Example 182, N-(3-(4-(1H-pyrrolo[2,3-b]pyrid-5-yl)-1H-pyrazol-1-yl)-4-methylphenyl)quinoline-7-carboxamide], the GI50 worked out at 2000 nM in test [1], 400 nM in test [3] and 500 nM in test [4].

Turning to `Cc1ccc(NC(=O)c2cccc(C(F)(F)F)c2)cc1-n1cnc(-c2cnc3[nH]ccc3c2)c1` [Example 177, N-(3-(4-(1H-pyrrolo[2,3-b]pyrid-5-yl)-1H-imidazol-1-yl)-4-methylphenyl)-3-(trifluoromethyl)benzamide], the GI50 in test [1] came to 2700 nM; in test [3] it was 65 nM; in test [4], 120 nM.

For the compound `Cc1cn(-c2cc(C(=O)Nc3ccc(C)c(-n4cc(-c5cnc6[nH]ccc6c5)cn4)c3)cc(C(F)(F)F)c2)cn1` [Example 167, N-(3-(4-(1H-pyrrolo[2,3-b]pyrid-5-yl)-1H-pyrazol-1-yl)-4-methylphenyl)-3-(4-methyl-1H-imidazol-1-yl)-5-(trifluoromethyl)benzamide], the GI50 in test [1] worked out at 3900 nM; in test [3], 670 nM; in test [4], 330 nM.
